Source: ChEMBL document CHEMBL3085667, “New diarylamides and diarylureas possessing 8-amino(acetamido)quinoline scaffold: synthesis, antiproliferative activities against melanoma cell lines, kinase inhibition, and in silico studies” (Eur J Med Chem, 2013)

Experiment: Antiproliferative activity against human A375P cells after 48 hrs by MTT assay
Format: functional, cell-based
CC(=O)Nc1cccc2c(-c3cccc(NC(=O)c4ccc(C(F)(F)F)c(Cl)c4)c3)ccnc12 showed an IC50 of 7.6 µM.
Cc1cc(C(=O)Nc2cccc(-c3ccnc4c(N)cccc34)c2)ccc1Br showed an IC50 of 9.9 µM.
CC(=O)Nc1cccc2c(-c3cccc(NC(=O)c4ccc(F)c(C(F)(F)F)c4)c3)ccnc12 showed an IC50 of 6.8 µM.
For Cc1ccc(NC(=O)c2ccc(Cl)c(C(F)(F)F)c2)cc1-c1ccnc2c(N)cccc12, the IC50 was 3.3 µM.
Work on Nc1cccc2c(-c3cccc(NC(=O)c4cc5ccccc5s4)c3)ccnc12 yielded an IC50 of over 20 µM.
CC(=O)Nc1cccc2c(-c3cccc(NC(=O)c4cc5ccccc5s4)c3)ccnc12 gave an IC50 of 9.1 µM.
Work on CC(=O)Nc1cccc2c(-c3cccc(NC(=O)c4nccs4)c3)ccnc12 yielded an IC50 of over 20 µM.
Molecule Nc1cccc2c(-c3cccc(NC(=O)c4ccc(C(F)(F)F)c(Cl)c4)c3)ccnc12 has an IC50 of 6.1 µM.
COc1ccc(C(=O)Nc2cccc(-c3ccnc4c(N)cccc34)c2)cc1OC gave an IC50 of 9.5 µM.
Cc1ccc(NC(=O)c2ccc3c(c2)OCCO3)cc1-c1ccnc2c(N)cccc12 gave an IC50 of 0.28 µM.
For CC(=O)Nc1cccc2c(-c3cccc(NC(=O)c4ccc(C)c(C)c4)c3)ccnc12, the IC50 was over 20 µM.
In the case of Nc1cccc2c(-c3cccc(NC(=O)Nc4ccc(Cl)c(C(F)(F)F)c4)c3)ccnc12, the IC50 is reported as 3 µM.
For Nc1cccc2c(-c3cccc(NC(=O)c4ccc(F)c(C(F)(F)F)c4)c3)ccnc12, the IC50 was 10.4 µM.
With Nc1cccc2c(-c3cccc(NC(=O)c4cc(C(F)(F)F)cc(C(F)(F)F)c4)c3)ccnc12 the IC50 was 3.4 µM.
Work on CC(=O)Nc1cccc2c(-c3cccc(NC(=O)Nc4ccc(Cl)c(C(F)(F)F)c4)c3)ccnc12 yielded an IC50 of 2.5 µM.
Work on CC(=O)Nc1cccc2c(-c3cccc(NC(=O)c4ccc(Cl)cc4C(F)(F)F)c3)ccnc12 yielded an IC50 of over 20 µM.
With Nc1cccc2c(-c3cccc(NC(=O)c4ccc(C(F)(F)F)cc4C(F)(F)F)c3)ccnc12 the IC50 was over 20 µM.
Molecule Cc1ccc(C(=O)Nc2cccc(-c3ccnc4c(N)cccc34)c2)cc1C has an IC50 of over 20 µM.
With Cc1cc(C(=O)Nc2cccc(-c3ccnc4c(N)cccc34)c2)c(C)o1 the IC50 was over 20 µM.
Molecule CC(=O)Nc1cccc2c(-c3cc(NC(=O)c4cc(C(F)(F)F)cc(C(F)(F)F)c4)ccc3C)ccnc12 has an IC50 of over 20 µM.
Nc1cccc2c(-c3cccc(NC(=O)c4ccc(Cl)cc4C(F)(F)F)c3)ccnc12 showed an IC50 of over 20 µM.
